Laboratory results reported in the supplement of paper PMC10307832.

Tests used:
Experiment in all cases: relative viability (nuclei count vs DMSO), 5 days (fraction); higher = more cells survive
Wnt-C59 + Palbociclib = compound: CC1=NC=CC(=C1)C2=CC=C(C=C2)CC(=O)NC3=CC=C(C=C3)C4=CN=CC=C4 [Wnt-C59] + CC(=O)c1c(C)c2cnc(Nc3ccc(N4CCNCC4)cn3)nc2n(C2CCCC2)c1=O [Palbociclib] (partner 0.5 µM)
Outline: (§1)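 Lung cancer cell lines in 1536-well plates got either a single drug or a fixed anchor-drug dose together with five library-drug doses (not always all listed) in √10 steps, by pin tool, on the day after seeding. Nuclei were counted after 5 days, and relative viability is the treated-to-vehicle ratio of nuclei counts. Values are medians of duplicate plates.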

Wnt-C59 + Dasatinib = compound: CC1=NC=CC(=C1)C2=CC=C(C=C2)CC(=O)NC3=CC=C(C=C3)C4=CN=CC=C4 [Wnt-C59] + Cc1nc(Nc2ncc(C(=O)Nc3c(C)cccc3Cl)s2)cc(N2CCN(CCO)CC2)n1 [Dasatinib] (partner 0.075 µM)
Outline: as §1

Lapatinib + OSI-027 = compound: CS(=O)(=O)CCNCc1ccc(-c2ccc3ncnc(Nc4ccc(OCc5cccc(F)c5)c(Cl)c4)c3c2)o1 [Lapatinib] + COc1cccc2cc(-c3nc([C@H]4CC[C@H](C(=O)O)CC4)n4ncnc(N)c34)[nH]c12 [OSI-027] (partner 0.5 µM)
Outline: as §1

Lapatinib + Pemetrexed = compound: CS(=O)(=O)CCNCc1ccc(-c2ccc3ncnc(Nc4ccc(OCc5cccc(F)c5)c(Cl)c4)c3c2)o1 [Lapatinib] + Nc1nc2[nH]cc(CCc3ccc(C(=O)N[C@@H](CCC(=O)O)C(=O)O)cc3)c2c(=O)[nH]1 [Pemetrexed] (partner 0.2 µM)
Outline: as §1

Cell Line: NCI-H1734
- relative viability (Wnt-C59 + Palbociclib; first compound 0.001 µM): 0.382
- relative viability (Wnt-C59 + Palbociclib; first compound 0.01 µM): 0.334
- relative viability (Wnt-C59 + Palbociclib; first compound 0.03162 µM): 0.36
- relative viability (Wnt-C59 + Palbociclib; first compound 0.1 µM): 0.364
- relative viability (Wnt-C59 + Dasatinib; first compound 0.001 µM): 0.418
- relative viability (Wnt-C59 + Dasatinib; first compound 0.01 µM): 0.452
- relative viability (Wnt-C59 + Dasatinib; first compound 0.03162 µM): 0.516
- relative viability (Wnt-C59 + Dasatinib; first compound 0.1 µM): 0.442
- relative viability (Lapatinib + OSI-027; first compound 0.02 µM): 0.615
- relative viability (Lapatinib + OSI-027; first compound 0.06325 µM): 0.375
- relative viability (Lapatinib + OSI-027; first compound 0.2 µM): 0.579
- relative viability (Lapatinib + OSI-027; first compound 0.6325 µM): 0.721
- relative viability (Lapatinib + OSI-027; first compound 2 µM): 0.507
- relative viability (Lapatinib + Pemetrexed; first compound 0.06325 µM): 0.422
- relative viability (Lapatinib + Pemetrexed; first compound 0.2 µM): 0.411
- relative viability (Lapatinib + Pemetrexed; first compound 0.6325 µM): 0.425
- relative viability (Lapatinib + Pemetrexed; first compound 2 µM): 0.383

Cell Line: NCI-H1666
- relative viability (Wnt-C59 + Palbociclib; first compound 0.001 µM): 0.658
- relative viability (Wnt-C59 + Palbociclib; first compound 0.01 µM): 0.654
- relative viability (Wnt-C59 + Palbociclib; first compound 0.03162 µM): 0.616
- relative viability (Wnt-C59 + Palbociclib; first compound 0.1 µM): 0.647
- relative viability (Wnt-C59 + Dasatinib; first compound 0.001 µM): 0.803
- relative viability (Wnt-C59 + Dasatinib; first compound 0.01 µM): 0.84
- relative viability (Wnt-C59 + Dasatinib; first compound 0.03162 µM): 0.836
- relative viability (Wnt-C59 + Dasatinib; first compound 0.1 µM): 0.795
- relative viability (Lapatinib + OSI-027; first compound 0.02 µM): 0.828
- relative viability (Lapatinib + OSI-027; first compound 0.06325 µM): 0.732
- relative viability (Lapatinib + OSI-027; first compound 0.2 µM): 0.645
- relative viability (Lapatinib + OSI-027; first compound 0.6325 µM): 0.657
- relative viability (Lapatinib + OSI-027; first compound 2 µM): 0.316
- relative viability (Lapatinib + Pemetrexed; first compound 0.02 µM): 0.858
- relative viability (Lapatinib + Pemetrexed; first compound 0.06325 µM): 0.789
- relative viability (Lapatinib + Pemetrexed; first compound 0.2 µM): 0.851
- relative viability (Lapatinib + Pemetrexed; first compound 0.6325 µM): 0.841
- relative viability (Lapatinib + Pemetrexed; first compound 2 µM): 0.67

Cell Line: BEN
- relative viability (Wnt-C59 + Palbociclib; first compound 0.001 µM): 0.477
- relative viability (Wnt-C59 + Palbociclib; first compound 0.01 µM): 0.437
- relative viability (Wnt-C59 + Palbociclib; first compound 0.03162 µM): 0.538
- relative viability (Wnt-C59 + Palbociclib; first compound 0.1 µM): 0.534
- relative viability (Wnt-C59 + Dasatinib; first compound 0.001 µM): 0.329
- relative viability (Wnt-C59 + Dasatinib; first compound 0.01 µM): 0.3
- relative viability (Wnt-C59 + Dasatinib; first compound 0.03162 µM): 0.35
- relative viability (Wnt-C59 + Dasatinib; first compound 0.1 µM): 0.385
- relative viability (Lapatinib + OSI-027; first compound 0.06325 µM): 0.279
- relative viability (Lapatinib + OSI-027; first compound 0.2 µM): 0.298
- relative viability (Lapatinib + OSI-027; first compound 0.6325 µM): 0.288
- relative viability (Lapatinib + OSI-027; first compound 2 µM): 0.25
- relative viability (Lapatinib + Pemetrexed; first compound 0.02 µM): 0.409
- relative viability (Lapatinib + Pemetrexed; first compound 0.06325 µM): 0.847
- relative viability (Lapatinib + Pemetrexed; first compound 0.2 µM): 0.683
- relative viability (Lapatinib + Pemetrexed; first compound 0.6325 µM): 0.802
- relative viability (Lapatinib + Pemetrexed; first compound 2 µM): 0.71

Cell Line: ChaGo-K-1
- relative viability (Wnt-C59 + Palbociclib; first compound 0.001 µM): 0.97
- relative viability (Wnt-C59 + Palbociclib; first compound 0.01 µM): 0.885
- relative viability (Wnt-C59 + Palbociclib; first compound 0.03162 µM): 0.953
- relative viability (Wnt-C59 + Palbociclib; first compound 0.1 µM): 0.957
- relative viability (Wnt-C59 + Dasatinib; first compound 0.001 µM): 0.659
- relative viability (Wnt-C59 + Dasatinib; first compound 0.01 µM): 0.606
- relative viability (Wnt-C59 + Dasatinib; first compound 0.03162 µM): 0.65
- relative viability (Wnt-C59 + Dasatinib; first compound 0.1 µM): 0.606
- relative viability (Lapatinib + OSI-027; first compound 0.02 µM): 0.341
- relative viability (Lapatinib + OSI-027; first compound 0.06325 µM): 0.391
- relative viability (Lapatinib + OSI-027; first compound 0.2 µM): 0.585
- relative viability (Lapatinib + OSI-027; first compound 0.6325 µM): 0.53
- relative viability (Lapatinib + OSI-027; first compound 2 µM): 0.462
- relative viability (Lapatinib + Pemetrexed; first compound 0.02 µM): 0.281
- relative viability (Lapatinib + Pemetrexed; first compound 0.06325 µM): 0.274
- relative viability (Lapatinib + Pemetrexed; first compound 0.2 µM): 0.265
- relative viability (Lapatinib + Pemetrexed; first compound 0.6325 µM): 0.264
- relative viability (Lapatinib + Pemetrexed; first compound 2 µM): 0.253

Cell Line: SK-MES-1
- relative viability (Wnt-C59 + Palbociclib; first compound 0.001 µM): 0.29
- relative viability (Wnt-C59 + Palbociclib; first compound 0.01 µM): 0.321
- relative viability (Wnt-C59 + Palbociclib; first compound 0.03162 µM): 0.316
- relative viability (Wnt-C59 + Palbociclib; first compound 0.1 µM): 0.339
- relative viability (Wnt-C59 + Dasatinib; first compound 0.001 µM): 0.393
- relative viability (Wnt-C59 + Dasatinib; first compound 0.01 µM): 0.264
- relative viability (Wnt-C59 + Dasatinib; first compound 0.03162 µM): 0.39
- relative viability (Wnt-C59 + Dasatinib; first compound 0.1 µM): 0.337
- relative viability (Lapatinib + OSI-027; first compound 0.02 µM): 0.472
- relative viability (Lapatinib + OSI-027; first compound 0.06325 µM): 0.453
- relative viability (Lapatinib + OSI-027; first compound 0.2 µM): 0.6
- relative viability (Lapatinib + OSI-027; first compound 0.6325 µM): 0.578
- relative viability (Lapatinib + OSI-027; first compound 2 µM): 0.256
- relative viability (Lapatinib + Pemetrexed; first compound 0.02 µM): 0.824
- relative viability (Lapatinib + Pemetrexed; first compound 0.06325 µM): 0.93
- relative viability (Lapatinib + Pemetrexed; first compound 0.2 µM): 0.943
- relative viability (Lapatinib + Pemetrexed; first compound 0.6325 µM): 0.997
- relative viability (Lapatinib + Pemetrexed; first compound 2 µM): 0.405

Cell Line: NCI-H3122
- relative viability (Wnt-C59 + Palbociclib; first compound 0.001 µM): 0.183
- relative viability (Wnt-C59 + Palbociclib; first compound 0.01 µM): 0.201
- relative viability (Wnt-C59 + Palbociclib; first compound 0.03162 µM): 0.22
- relative viability (Wnt-C59 + Palbociclib; first compound 0.1 µM): 0.186
- relative viability (Wnt-C59 + Dasatinib; first compound 0.001 µM): 0.824
- relative viability (Wnt-C59 + Dasatinib; first compound 0.01 µM): 0.951
- relative viability (Wnt-C59 + Dasatinib; first compound 0.03162 µM): 0.893
- relative viability (Wnt-C59 + Dasatinib; first compound 0.1 µM): 0.894
- relative viability (Lapatinib + OSI-027; first compound 0.06325 µM): 0.556
- relative viability (Lapatinib + OSI-027; first compound 0.2 µM): 0.962
- relative viability (Lapatinib + OSI-027; first compound 0.6325 µM): 0.902
- relative viability (Lapatinib + OSI-027; first compound 2 µM): 0.893
- relative viability (Lapatinib + Pemetrexed; first compound 0.02 µM): 0.212
- relative viability (Lapatinib + Pemetrexed; first compound 0.06325 µM): 0.199
- relative viability (Lapatinib + Pemetrexed; first compound 0.2 µM): 0.206
- relative viability (Lapatinib + Pemetrexed; first compound 0.6325 µM): 0.197
- relative viability (Lapatinib + Pemetrexed; first compound 2 µM): 0.193

Cell Line: NCI-H1563
- relative viability (Wnt-C59 + Dasatinib; first compound 0.001 µM): 0.456
- relative viability (Wnt-C59 + Dasatinib; first compound 0.01 µM): 0.509
- relative viability (Wnt-C59 + Dasatinib; first compound 0.03162 µM): 0.475
- relative viability (Wnt-C59 + Dasatinib; first compound 0.1 µM): 0.468
- relative viability (Lapatinib + OSI-027; first compound 0.02 µM): 0.716
- relative viability (Lapatinib + OSI-027; first compound 0.06325 µM): 0.654
- relative viability (Lapatinib + OSI-027; first compound 0.2 µM): 0.772
- relative viability (Lapatinib + OSI-027; first compound 0.6325 µM): 0.715
- relative viability (Lapatinib + OSI-027; first compound 2 µM): 0.715
- relative viability (Lapatinib + Pemetrexed; first compound 0.02 µM): 0.651
- relative viability (Lapatinib + Pemetrexed; first compound 0.06325 µM): 0.862
- relative viability (Lapatinib + Pemetrexed; first compound 0.2 µM): 0.652
- relative viability (Lapatinib + Pemetrexed; first compound 0.6325 µM): 0.843
- relative viability (Lapatinib + Pemetrexed; first compound 2 µM): 0.666

Cell Line: CAL-12T
- relative viability (Wnt-C59 + Palbociclib; first compound 0.001 µM): 0.483
- relative viability (Wnt-C59 + Palbociclib; first compound 0.01 µM): 0.375
- relative viability (Wnt-C59 + Palbociclib; first compound 0.03162 µM): 0.556
- relative viability (Wnt-C59 + Palbociclib; first compound 0.1 µM): 0.394
- relative viability (Wnt-C59 + Dasatinib; first compound 0.001 µM): 0.505
- relative viability (Wnt-C59 + Dasatinib; first compound 0.01 µM): 0.391
- relative viability (Wnt-C59 + Dasatinib; first compound 0.03162 µM): 0.475
- relative viability (Wnt-C59 + Dasatinib; first compound 0.1 µM): 0.437
- relative viability (Lapatinib + OSI-027; first compound 0.06325 µM): 0.32
- relative viability (Lapatinib + OSI-027; first compound 0.2 µM): 0.497
- relative viability (Lapatinib + OSI-027; first compound 0.6325 µM): 0.319
- relative viability (Lapatinib + OSI-027; first compound 2 µM): 0.313
- relative viability (Lapatinib + Pemetrexed; first compound 0.02 µM): 1.16
- relative viability (Lapatinib + Pemetrexed; first compound 0.06325 µM): 1.31
- relative viability (Lapatinib + Pemetrexed; first compound 0.2 µM): 1.37
- relative viability (Lapatinib + Pemetrexed; first compound 0.6325 µM): 1.04
- relative viability (Lapatinib + Pemetrexed; first compound 2 µM): 0.744

Cell Line: NCI-H1975
- relative viability (Wnt-C59 + Palbociclib; first compound 0.001 µM): 0.605
- relative viability (Wnt-C59 + Palbociclib; first compound 0.01 µM): 0.601
- relative viability (Wnt-C59 + Palbociclib; first compound 0.03162 µM): 0.607
- relative viability (Wnt-C59 + Palbociclib; first compound 0.1 µM): 0.554
- relative viability (Wnt-C59 + Dasatinib; first compound 0.001 µM): 0.412
- relative viability (Wnt-C59 + Dasatinib; first compound 0.01 µM): 0.31
- relative viability (Wnt-C59 + Dasatinib; first compound 0.03162 µM): 0.349
- relative viability (Wnt-C59 + Dasatinib; first compound 0.1 µM): 0.447
- relative viability (Lapatinib + OSI-027; first compound 0.02 µM): 0.699
- relative viability (Lapatinib + OSI-027; first compound 0.06325 µM): 0.472
- relative viability (Lapatinib + OSI-027; first compound 0.2 µM): 0.494
- relative viability (Lapatinib + OSI-027; first compound 0.6325 µM): 0.568
- relative viability (Lapatinib + OSI-027; first compound 2 µM): 0.446
- relative viability (Lapatinib + Pemetrexed; first compound 0.02 µM): 0.316
- relative viability (Lapatinib + Pemetrexed; first compound 0.06325 µM): 0.298
- relative viability (Lapatinib + Pemetrexed; first compound 0.2 µM): 0.287
- relative viability (Lapatinib + Pemetrexed; first compound 0.6325 µM): 0.283
- relative viability (Lapatinib + Pemetrexed; first compound 2 µM): 0.284
